# Test system: Helicobacter pylori ATCC43504
# Test: Growth inhibition experiment on Helicobacter pylori
# Type: cell-based
# Details: Fermentation supernatant
row,Compound,Inhibition rates to Helicobacter pylori (%)
1,"Cc1ncc([N+](=O)[O-])n1CCO [Positive control, metronidazole]",100%

# Same assay, conditions: Suspension
row,Compound,Inhibition rates to Helicobacter pylori (%)
1,"Cc1ncc([N+](=O)[O-])n1CCO [Positive control, metronidazole]",100%

# Test system: Lactobacillus helveticus ZJUIDS12
# Test: Antibiotic susceptibility of Lactobacillus helveticus ZJUIDS12 (susceptibility paper, inhibition zone)
# Type: cell-based
# Set-up: key to Susceptive type: S: sensitive; I: intermediate; R: insensitive
# Details: according to CLSI 2017
Compound,Susceptive type,susceptibility of Lactobacillus helveticus ZJUIDS12 to the antibiotic (in words)
"O=C(N[C@H](CO)[C@H](O)c1ccc([N+](=O)[O-])cc1)C(Cl)Cl [Chloramphenicol (C), Chloramphenicol]",S,sensitive
"CC1(C)S[C@@H]2[C@H](NC(=O)[C@H](N)c3ccccc3)C(=O)N2[C@H]1C(=O)O [Ampicillin (AM), Ampicillin]",S,sensitive
"Cc1nnc(SCC2=C(C(=O)O)N3C(=O)[C@@H](NC(=O)Cn4cnnn4)[C@H]3SC2)s1 [Cefazolin(CZ), Cefazolin]",S,sensitive
"NCC[C@H](O)C(=O)N[C@@H]1C[C@H](N)[C@@H](O[C@H]2O[C@H](CN)[C@@H](O)[C@H](O)[C@H]2O)[C@H](O)[C@H]1O[C@H]1O[C@H](CO)[C@@H](O)[C@H](N)[C@H]1O [Amikacin (AK), Amikacin]",S,sensitive
"CC1(C)S[C@@H]2[C@H](NC(=O)Cc3ccccc3)C(=O)N2[C@H]1C(=O)O [Penicillin G(P), Penicillin G]",S,sensitive
"Cc1cc(NS(=O)(=O)c2ccc(N)cc2)no1 [Sulfamethoxazole (SXT), Sulfamethoxazole]",R,insensitive
"CC[C@H]1OC(=O)[C@H](C)[C@@H](O[C@H]2C[C@@](C)(OC)[C@@H](O)[C@H](C)O2)[C@H](C)[C@@H](O[C@@H]2O[C@H](C)C[C@H](N(C)C)[C@H]2O)[C@](C)(O)C[C@@H](C)C(=O)[C@H](C)[C@@H](O)[C@]1(C)O [Erythromycin (E), Erythromycin]",S,sensitive
"CCn1cc(C(=O)O)c(=O)c2cc(F)c(N3CCNCC3)cc21 [Norfloxacin (NOR), Norfloxacin]",S,sensitive
Gentamicin [Gentamicin (GM)],I,intermediate

# Reference: patent US20230218688A1 (Zhejiang Chinese Medical University, priority 2022, published 2023)
